Read-outs that look alike come from different tables or passages of the source.
What was measured:
Assay type in all cases: cell-based
Phospho-GSK3β(S9) = experiment: Luminex multiplex assay, Phospho-GSK3β(S9)
How it was run: (§1)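 Cells (PC3; HCT-116, MDA-MB-231 and HT29 with 500 ng/mL recombinant human IGF-I for the final 10 min) treated with compound or rapamycin over a concentration range for 1 h at 37° C, 5% CO2. Lysates read by bead-based Luminex sandwich immunoassay, 3 h at room temperature, RPE anti-rabbit detection, quantified against phosphoprotein standard curves.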

Phospho-PRAS40(T246) = experiment: Luminex multiplex assay, Phospho-PRAS40(T246)
How it was run: as §1

S6RP(S235/S236) = experiment: Inhibition of S6RP(S235/S236) phosphorylation in cell lines; settings: read-out: p-S6RP(S235/S236)
Akt(T308) = experiment: Inhibition of Akt(T308) phosphorylation in cell lines; settings: read-out: p-Akt(T308)
PC3 = experiment: Growth inhibition (cell proliferation assay), PC3; settings: read-out: Compound 1 Growth Inhibition IC50
MDA-MB-231 = experiment: Growth inhibition (cell proliferation assay), MDA-MB-231; settings: read-out: Compound 1 Growth Inhibition IC50
NCI-H23 = experiment: Growth inhibition (cell proliferation assay), NCI-H23; settings: read-out: Compound 1 Growth Inhibition IC50
HT-29 = experiment: Growth inhibition (cell proliferation assay), HT-29; settings: read-out: Compound 1 Growth Inhibition IC50
mTORC1 = biological target: T1, mTORC1 (Homo sapiens, UniProt P42345); experiment: Inhibition of mTORC1 measured by phosphorylation of pathway markers (FIG. 1); settings: phosphorylation of pathway markers Akt, PRAS40, GSK-3β, p70S6, S6, 4-EBP1
T1 construct: endogenous in cells; host or cells: PC3, A549, HCT116, U-87 MG, MDA-MB-231, NCI-H23, HT-29
Excerpt: (§2) The activity of the TORC1 complex can be followed from the phosphorylation status of 4E-BP1(T46), a direct substrate of mTOR kinase and S6RP(S235/S236), a downstream substrate from mTOR. The activity of the TORC2 complex can be followed directly from the phosphorylation status of Akt(S473) and indirectly from the phosphorylation status of AKT substrates, GSK3β(S9) and PRAS40(T246). […] Full activation of Akt requires an additional phosphorylation on T308 that is done by PDK1 and is speculated to be co-dependent with the TORC2 phosphorylation of the Akt(S473).

mTORC2 = biological target: T2, mTORC2 (Homo sapiens, UniProt P42345); experiment: Inhibition of mTORC2 measured by phosphorylation of pathway markers (FIG. 1); settings: phosphorylation of pathway markers Akt, PRAS40, GSK-3β, p70S6, S6, 4-EBP1
T2 construct: endogenous in cells; host or cells: PC3, A549, HCT116, U-87 MG, MDA-MB-231, NCI-H23, HT-29
Excerpt: as §2

CO[C@H]1CC[C@H](N2C(=O)CNc3ncc(-c4ccc(C(C)(C)O)nc4)nc32)CC1 [Compound 1, 7-(6-(2-hydroxypropan-2-yl)pyridin-3-yl)-1-((1r,4r)-4-methoxycyclohexyl)-3,4-dihydropyrazino-[2,3-b]pyrazin-2(1H)-one]
IC50 (Phospho-GSK3β(S9); HCT116, IGF-I stimulation, read-out: p-GSK3β (S9)): 220 nM | IC50 (Phospho-GSK3β(S9); HCT116 cell line, IGF, read-out: Luminex GSK-3β (IGF)): 359 nM | IC50 (Phospho-GSK3β(S9); HT-29, IGF-I stimulation, read-out: p-GSK3β (S9)): > 2000 nM | IC50 (Phospho-GSK3β(S9); NCI-H23, read-out: p-GSK3β (S9)): > 2000 nM | IC50 (Phospho-GSK3β(S9); PC3, read-out: p-GSK3β (S9)): 230 nM | IC50 (Phospho-GSK3β(S9); U87MG cell line, read-out: Luminex GSK-3β): 281 nM | IC50 (Phospho-GSK3β(S9); U-87 MG, read-out: p-GSK3β (S9)): 280 nM | IC50 (Phospho-PRAS40(T246); A549, read-out: p-PRAS40 (T246)): 750 nM | IC50 (Phospho-PRAS40(T246); HCT116, IGF-I stimulation, read-out: p-PRAS40 (T246)): 430 nM | IC50 (Phospho-PRAS40(T246); HCT116 cell line, IGF, read-out: Luminex PRAS40 (IGF)): 430 nM | IC50 (Phospho-PRAS40(T246); HT-29, IGF-I stimulation, read-out: p-PRAS40 (T246)): 350 nM | IC50 (Phospho-PRAS40(T246); MDA-MB-231, IGF-I stimulation, read-out: p-PRAS40 (T246)): 280 nM | IC50 (Phospho-PRAS40(T246); NCI-H23, read-out: p-PRAS40 (T246)): 190 nM | IC50 (Phospho-PRAS40(T246); PC3, read-out: p-PRAS40 (T246)): 140 nM | IC50 (Phospho-PRAS40(T246); U87MG cell line, read-out: Luminex PRAS40): 362 nM | IC50 (Phospho-PRAS40(T246); U-87 MG, read-out: p-PRAS40 (T246)): 360 nM | IC50 (S6RP(S235/S236); A549): 40 nM | IC50 (S6RP(S235/S236); HCT116): 80 nM | IC50 (S6RP(S235/S236); HT-29): 10 nM | IC50 (S6RP(S235/S236); MDA-MB-231): 30 nM | IC50 (S6RP(S235/S236); NCI-H23): 70 nM | IC50 (S6RP(S235/S236); PC3): 20 nM | IC50 (S6RP(S235/S236); U-87 MG): 190 nM | IC50 (Akt(T308); A549): 640 nM | IC50 (Akt(T308); HCT116): 1950 nM | IC50 (Akt(T308); HT-29): 240 nM | IC50 (Akt(T308); PC3): 130 nM | IC50 (Akt(T308); U-87 MG): 260 nM | IC50 (PC3): 110 nM | IC50 (MDA-MB-231): 1770 nM | IC50 (NCI-H23): 3710 nM | IC50 (HT-29): > 20000 nM | inhibition of mTORC1 (mTORC1): inhibition | inhibition of mTORC2 (mTORC2): inhibition
